# Values quoted from earlier work in patent publication US10434129B2, “Composition to enhance HDL cholesterol and to decrease intima-media thickening in animals and humans and a method for its preparation” (ARJUNA NATURAL LTD, priority 2003, dated 2019).
# How the values were obtained:
# [1] = tested on: Human umbilical vein endothelial cells (HUVEC); settings: HUVEC incubated with ox-LDL
# [2] = tested on: rat vascular smooth muscle cells (VSMC)
smiles,measurement,setting,value
O=C(O[C@@H]1O[C@@H]2COC(=O)c3cc(O)c(O)c(O)c3-c3c(cc(O)c(O)c3O)C(=O)O[C@H]([C@H]1O)[C@@H]2O)c1cc(O)c(O)c(O)c1 [corilagin],Malondialdehyde (MDA) in the culture media,[1],reduce MDA
same,adhesion of HUVEC to monocytes,[1]; then monocytes,prevented HUVEC from adhering to monocytes
same,VSMC proliferation induced by ox-LDL,[2],inhibited VSMC proliferation
